Experimental data reported in patent publication US11779606B2, “Peptides and combination of peptides of non-canonical origin for use in immunotherapy against different types of cancers” (Immatics Biotechnologies GmbH, priority 2018, dated 2023).

Legend:
CD8+ T cells = test: In vitro T-cell priming assay (immunogenicity) with artificial APCs loaded with peptide/MHC complexes and anti-CD28; type: cell-based, human; conditions: CD8+ T cells of healthy HLA-A*02 donors, multimer staining, Table 13b
Excerpt: In order to obtain information regarding the immunogenicity of the TUMAPs of the present invention, the inventors performed investigations using an in vitro T-cell priming assay based on repeated stimulations of CD8+ T cells with artificial antigen presenting cells (aAPCs) loaded with peptide/MHC complexes and anti-CD28 antibody.
In order to perform in vitro stimulations by artificial antigen presenting cells loaded with peptide-MHC complex (pMHC) and anti-CD28 antibody, the inventors first isolated CD8+ T cells from fresh HLA-A*02 leukapheresis products via positive selection using CD8 microbeads (Miltenyi Biotec, Bergisch-Gladbach, Germany) of healthy donors obtained from the University clinics Mannheim, Germany, after informed consent.
PBMCs and isolated CD8+ lymphocytes were incubated in T-cell medium (TCM) until use consisting of RPMI-Glutamax (Invitrogen, Karlsruhe, Germany) supplemented with 10% heat inactivated human AB serum (PAN-Biotech, Aidenbach, Germany), 100 U/ml Penicillin/100 μg/ml Streptomycin (Cambrex, Cologne, Germany), 1 mM sodium pyruvate (CC Pro, Oberdorla, Germany), 20 μg/ml Gentamycin (Cambrex). 2.5 ng/ml IL-7 (PromoCell, Heidelberg, Germany) and 10 U/ml IL-2 (Novartis Pharma, Nümberg, Germany) were also added to the TCM at this step.
Generation of pMHC/anti-CD28 coated beads, T-cell stimulations and readout was performed in a highly defined in vitro system using four different pMHC molecules per stimulation condition and 8 different pMHC molecules per readout condition.
The purified co-stimulatory mouse IgG2a anti human CD28 Ab 9.3 (Jung et al., 1987) was chemically biotinylated using Sulfo-N-hydroxysuccinimidobiotin as recommended by the manufacturer (Perbio, Bonn, Germany). Beads used were 5.6 μm diameter streptavidin coated polystyrene particles (Bangs Laboratories, Illinois, USA).
800.000 beads/200 μl were coated in 96-well plates in the presence of 4×12.5 ng different biotin-pMHC, washed and 600 ng biotin anti-CD28 were added subsequently in a volume of 200 μl. Stimulations were initiated in 96-well plates by co-incubating […] CD8+ T cells with 2×10^5 washed coated beads in 200 μl TCM supplemented with 5 ng/ml IL-12 (PromoCell) for 3 days at 37° C. Half of the medium was then exchanged by fresh TCM supplemented with 80 U/ml IL-2 and incubating was continued for 4 days at 37° C. This stimulation cycle was performed for a total of three times. For the pMHC multimer readout using 8 different pMHC molecules per condition, a two-dimensional combinatorial coding approach was used as previously described (Andersen et al., 2012) with minor modifications encompassing coupling to 5 different fluorochromes. Finally, multimeric analyses were performed by staining the cells with Live/dead near IR dye (Invitrogen, Karlsruhe, Germany), CD8-FITC antibody clone SK1 (BD, Heidelberg, Germany) and fluorescent pMHC multimers. For analysis, a BD LSRII SORP cytometer equipped with appropriate lasers and filters was used. Peptide specific cells were calculated as percentage of total CD8+ cells. Evaluation of multimeric analysis was done using the FlowJo software (Tree Star, Oreg., USA). In vitro priming of specific multimer+CD8+ lymphocytes was detected by comparing to negative control stimulations.

HLA-A*02:01 = HLA-A*02:01 (Homo sapiens, UniProt P04439, D140Y/D185E/D98H/E176V/E277Q/G131W/G231S/I119V/I121R/I166T/I218V/L300P/L318F/N151K/N90K/P208A/P217A/Q86G/Q94H/R138H/R169H/T345S); test: MHC binding assay (UV-ligand exchange, β2m ELISA); conditions: MHC class I binding score; peptide exchange yield, binding to HLA-A*02:01, UV-ligand exchange with β2m ELISA
Excerpt: Candidate peptides for T cell based therapies according to the present invention were further tested for their MHC binding capacity (affinity).
The individual peptide-MHC complexes were produced by UV-ligand exchange, where a UV-sensitive peptide is cleaved upon UV-irradiation and exchanged with the peptide of interest as analyzed. Only peptide candidates that can effectively bind and stabilize the peptide-receptive MHC molecules prevent dissociation of the MHC complexes. To determine the yield of the exchange reaction, an ELISA was performed based on the detection of the light chain (β2m) of stabilized MHC complexes. The assay was performed as generally described in Rodenko et al. (Rodenko et al., 2006).
96 well MAXISorp plates (NUNC) were coated over night with 2 ug/ml streptavidin in PBS at room temperature, washed 4× and blocked for 1h at 37° C. in 2% BSA containing blocking buffer. Refolded HLA-A*02:01/MLA-001 monomers served as standards, covering the range of 15-500 ng/ml. Peptide-MHC monomers of the UV-exchange reaction were diluted 100 fold in blocking buffer. Samples were incubated for 1 h at 37° C., washed four times, incubated with 2 ug/ml HRP conjugated anti-β2m for 1h at 37° C., washed again and detected with TMB solution that is stopped with […]. Absorption was measured at 450 nm. Candidate peptides that show a high exchange yield (preferably higher than 50%, most preferred higher than 75%) are generally preferred for a generation and production of antibodies or fragments thereof, and/or T cell receptors or fragments thereof, as they show sufficient avidity to the MHC molecules and prevent dissociation of the MHC complexes.

| Peptide exchange (HLA-A*02:01) | Substance | Wells positive [%] (CD8+ T cells) |
| --- | --- | --- |
| ++++ (≥75% = ++++) | 33 (FASERPPSV; listed as Homo sapiens) [compound 33] | +++ (50-69% = +++) |
| ++++ (≥75% = ++++) | 74 (TLLSYSIPL; listed as Homo sapiens) [compound 74] | + (<20% = +) |
| ++++ (≥75% = ++++) | 51 (GLLTQVHIL; listed as Homo sapiens) [compound 51] | + (<20% = +) |
| ++++ (≥75% = ++++) | 1 (KLLDFSTRI; listed as Homo sapiens) [compound 1] | + (<20% = +) |
| ++++ (≥75% = ++++) | 37 (KILDEFYNV; listed as Homo sapiens) [compound 37] | +++ (50-69% = +++) |
| ++++ (≥75% = ++++) | 46 (AMVEIIPKV; listed as Homo sapiens) [compound 46] | + (<20% = +) |
| ++++ (≥75% = ++++) | 101 (KLPEGHLPEV; listed as Homo sapiens) [compound 101] | + (<20% = +) |
| ++++ (≥75% = ++++) | 13 (FLDEGSLLRL; listed as Homo sapiens) [compound 13] | + (<20% = +) |
| ++++ (≥75% = ++++) | 49 (FLWDPRDVVL; listed as Homo sapiens) [compound 49] | + (<20% = +) |
| ++++ (≥75% = ++++) | 2 (ALLDVLVKL; listed as Homo sapiens) [compound 2] | + (<20% = +) |
| ++++ (≥75% = ++++) | 18 (KMMTFFQGL; listed as Homo sapiens) [compound 18] | ++++ (≥70% = ++++) |
| ++++ (≥75% = ++++) | 96 (KIIEDLANTV; listed as Homo sapiens) [compound 96] | ++ (20-49% = ++) |
| ++++ (≥75% = ++++) | 29 (LLWEFPSMA; listed as Homo sapiens) [compound 29] | ++ (20-49% = ++) |
| ++++ (≥75% = ++++) | 48 (MLAEIHPKA; listed as Homo sapiens) [compound 48] | +++ (50-69% = +++) |
| ++++ (≥75% = ++++) | 7 (ALWEEVKATSL; listed as Homo sapiens) [compound 7] | + (<20% = +) |
| ++++ (≥75% = ++++) | 36 (FQVTRTTGV; listed as Homo sapiens) [compound 36] | + (<20% = +) |
| ++++ (≥75% = ++++) | 6 (ALHDSPVYL; listed as Homo sapiens) [compound 6] | ++ (20-49% = ++) |
| ++++ (≥75% = ++++) | 40 (FTLPFLVNL; listed as Homo sapiens) [compound 40] | +++ (50-69% = +++) |
| ++++ (≥75% = ++++) | 4 (YLGDSHVLL; listed as Homo sapiens) [compound 4] | + (<20% = +) |
| ++++ (≥75% = ++++) | 68 (KLLADAFKV; listed as Homo sapiens) [compound 68] | ++++ (≥70% = ++++) |
| ++++ (≥75% = ++++) | 19 (MLLPWLPKL; listed as Homo sapiens) [compound 19] | +++ (50-69% = +++) |
| ++++ (≥75% = ++++) | 26 (KLWTSLVNL; listed as Homo sapiens) [compound 26] | +++ (50-69% = +++) |
| ++++ (≥75% = ++++) | 65 (IAISQLTFV; listed as Homo sapiens) [compound 65] | + (<20% = +) |
| ++++ (≥75% = ++++) | 47 (ALLPGVPGL; listed as Homo sapiens) [compound 47] | ++ (20-49% = ++) |
| ++++ (≥75% = ++++) | 3 (FLLVPSPIWQL; listed as Homo sapiens) [compound 3] | + (<20% = +) |
| ++++ (≥75% = ++++) | 50 (GLASYLDRV; listed as Homo sapiens) [compound 50] | + (<20% = +) |
| ++++ (≥75% = ++++) | 38 (SLSAWLPSL; listed as Homo sapiens) [compound 38] | + (<20% = +) |
